From paper PMC7730235, “Discovery of a Novel Class of Covalent Dual Inhibitors Targeting the Protein Kinases BMX and BTK” (International Journal of Molecular Sciences, 2020) come the findings set out here.

Test in all cases: Radiometric kinase assay (Reaction Biology HotSpot)
What all share (assay type): biochemical

One assay has as its target T1, TXK (Homo sapiens, UniProt P42681).
T1 construct: purchased Reaction Biology Corporation
T1 sequence (P42681 1-527): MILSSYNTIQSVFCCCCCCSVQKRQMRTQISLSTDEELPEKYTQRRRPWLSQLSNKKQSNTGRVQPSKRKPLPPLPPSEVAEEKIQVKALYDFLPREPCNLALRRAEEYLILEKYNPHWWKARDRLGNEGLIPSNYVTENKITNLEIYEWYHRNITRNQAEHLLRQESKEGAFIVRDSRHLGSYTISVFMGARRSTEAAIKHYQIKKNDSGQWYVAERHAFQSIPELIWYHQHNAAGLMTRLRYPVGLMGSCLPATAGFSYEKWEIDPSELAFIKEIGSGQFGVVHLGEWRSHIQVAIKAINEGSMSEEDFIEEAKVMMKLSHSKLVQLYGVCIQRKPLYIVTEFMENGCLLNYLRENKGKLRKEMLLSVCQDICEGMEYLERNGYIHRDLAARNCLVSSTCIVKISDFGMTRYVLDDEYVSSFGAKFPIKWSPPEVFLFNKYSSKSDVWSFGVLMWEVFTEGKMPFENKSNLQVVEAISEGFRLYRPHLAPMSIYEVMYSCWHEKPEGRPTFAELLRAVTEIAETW
The following applies: for pIC50: five-dose singlicate; for remaining activity at 0.2 µM: read-out: Residual Activity @ 200 nM, TXK. The method, then: (§1) If not mentioned differently, in vitro profiling of compounds was performed at Reaction Biology Corporation using the HotSpot™ assay platform.

Another assay addresses T2, EGFR (Homo sapiens, UniProt P00533).
T2 construct: purchased Reaction Biology Corporation
The following applies: [ATP] = 10 μM; for remaining activity at 0.2 µM: 200 nM compound, duplicate mean, read-out: Residual Activity @ 200 nM, EGFR; for pIC50: radiometric HotSpot, five-dose singlicate. The method, then:
as §1

For another assay, the target named is T3, JAK3 (Homo sapiens, UniProt P52333).
T3 construct: purchased Reaction Biology Corporation
T3 sequence (P52333 1-1124): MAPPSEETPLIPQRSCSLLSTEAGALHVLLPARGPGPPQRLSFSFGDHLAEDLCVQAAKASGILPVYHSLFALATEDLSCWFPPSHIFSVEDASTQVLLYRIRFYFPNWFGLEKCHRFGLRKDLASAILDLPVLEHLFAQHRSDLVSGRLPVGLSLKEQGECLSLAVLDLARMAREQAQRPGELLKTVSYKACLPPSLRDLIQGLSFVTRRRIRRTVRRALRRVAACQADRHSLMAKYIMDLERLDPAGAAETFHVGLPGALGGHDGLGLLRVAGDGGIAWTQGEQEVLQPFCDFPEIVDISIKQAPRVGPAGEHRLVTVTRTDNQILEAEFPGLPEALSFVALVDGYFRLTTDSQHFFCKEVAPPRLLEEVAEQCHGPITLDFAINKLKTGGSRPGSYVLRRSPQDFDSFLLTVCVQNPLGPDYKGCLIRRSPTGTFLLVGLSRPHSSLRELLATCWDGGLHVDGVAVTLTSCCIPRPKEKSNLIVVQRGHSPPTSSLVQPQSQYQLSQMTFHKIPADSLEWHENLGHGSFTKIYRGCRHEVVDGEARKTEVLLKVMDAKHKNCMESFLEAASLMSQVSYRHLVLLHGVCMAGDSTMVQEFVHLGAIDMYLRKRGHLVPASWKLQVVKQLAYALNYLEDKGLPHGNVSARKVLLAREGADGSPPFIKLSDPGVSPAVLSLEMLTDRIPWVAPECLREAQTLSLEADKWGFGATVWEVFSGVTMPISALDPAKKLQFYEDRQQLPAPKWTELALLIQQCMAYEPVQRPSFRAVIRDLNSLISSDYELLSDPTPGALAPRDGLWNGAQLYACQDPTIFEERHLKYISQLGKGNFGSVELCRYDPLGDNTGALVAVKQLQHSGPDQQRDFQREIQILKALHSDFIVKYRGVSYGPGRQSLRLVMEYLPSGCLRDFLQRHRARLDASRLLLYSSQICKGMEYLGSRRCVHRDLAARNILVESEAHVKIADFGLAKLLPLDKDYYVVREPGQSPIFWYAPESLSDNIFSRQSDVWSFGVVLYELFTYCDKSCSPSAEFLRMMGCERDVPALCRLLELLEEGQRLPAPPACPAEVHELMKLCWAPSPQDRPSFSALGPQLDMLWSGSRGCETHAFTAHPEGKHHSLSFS
The following applies: [ATP] = 10 μM; for remaining activity at 0.2 µM: 200 nM compound, duplicate mean, read-out: Residual Activity @ 200 nM, JAK3; for pIC50: radiometric HotSpot, five-dose singlicate. How it is done: as §1

The target of the next assay is T4, MKK7 (Homo sapiens, UniProt O14733).
T4 construct: purchased Reaction Biology Corporation
T4 sequence (O14733 1-419): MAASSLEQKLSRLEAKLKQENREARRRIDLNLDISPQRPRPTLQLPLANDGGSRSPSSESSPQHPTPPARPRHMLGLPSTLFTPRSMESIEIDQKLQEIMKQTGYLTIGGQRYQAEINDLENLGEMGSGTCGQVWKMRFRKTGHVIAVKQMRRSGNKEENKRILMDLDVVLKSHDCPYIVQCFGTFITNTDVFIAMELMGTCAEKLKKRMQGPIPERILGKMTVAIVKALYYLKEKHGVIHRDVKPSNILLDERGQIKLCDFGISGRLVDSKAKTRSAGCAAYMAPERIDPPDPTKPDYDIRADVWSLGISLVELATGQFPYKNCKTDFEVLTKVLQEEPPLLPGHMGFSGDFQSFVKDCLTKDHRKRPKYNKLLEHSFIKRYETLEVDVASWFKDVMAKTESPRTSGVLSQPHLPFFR
The conditions noted are these: 200 nM compound, duplicate mean, [ATP] = 10 μM; read-out: Residual Activity @ 200 nM, MKK7. The method, then:
as §1

The mark [1] stands for this setting: radiometric HotSpot, [ATP] = 10 μM.
Where [2] appears, read: 200 nM compound, duplicate mean, [ATP] = 10 μM.

pIC50: −log10 of the molar value.

T2 sequence (P00533 25-1210): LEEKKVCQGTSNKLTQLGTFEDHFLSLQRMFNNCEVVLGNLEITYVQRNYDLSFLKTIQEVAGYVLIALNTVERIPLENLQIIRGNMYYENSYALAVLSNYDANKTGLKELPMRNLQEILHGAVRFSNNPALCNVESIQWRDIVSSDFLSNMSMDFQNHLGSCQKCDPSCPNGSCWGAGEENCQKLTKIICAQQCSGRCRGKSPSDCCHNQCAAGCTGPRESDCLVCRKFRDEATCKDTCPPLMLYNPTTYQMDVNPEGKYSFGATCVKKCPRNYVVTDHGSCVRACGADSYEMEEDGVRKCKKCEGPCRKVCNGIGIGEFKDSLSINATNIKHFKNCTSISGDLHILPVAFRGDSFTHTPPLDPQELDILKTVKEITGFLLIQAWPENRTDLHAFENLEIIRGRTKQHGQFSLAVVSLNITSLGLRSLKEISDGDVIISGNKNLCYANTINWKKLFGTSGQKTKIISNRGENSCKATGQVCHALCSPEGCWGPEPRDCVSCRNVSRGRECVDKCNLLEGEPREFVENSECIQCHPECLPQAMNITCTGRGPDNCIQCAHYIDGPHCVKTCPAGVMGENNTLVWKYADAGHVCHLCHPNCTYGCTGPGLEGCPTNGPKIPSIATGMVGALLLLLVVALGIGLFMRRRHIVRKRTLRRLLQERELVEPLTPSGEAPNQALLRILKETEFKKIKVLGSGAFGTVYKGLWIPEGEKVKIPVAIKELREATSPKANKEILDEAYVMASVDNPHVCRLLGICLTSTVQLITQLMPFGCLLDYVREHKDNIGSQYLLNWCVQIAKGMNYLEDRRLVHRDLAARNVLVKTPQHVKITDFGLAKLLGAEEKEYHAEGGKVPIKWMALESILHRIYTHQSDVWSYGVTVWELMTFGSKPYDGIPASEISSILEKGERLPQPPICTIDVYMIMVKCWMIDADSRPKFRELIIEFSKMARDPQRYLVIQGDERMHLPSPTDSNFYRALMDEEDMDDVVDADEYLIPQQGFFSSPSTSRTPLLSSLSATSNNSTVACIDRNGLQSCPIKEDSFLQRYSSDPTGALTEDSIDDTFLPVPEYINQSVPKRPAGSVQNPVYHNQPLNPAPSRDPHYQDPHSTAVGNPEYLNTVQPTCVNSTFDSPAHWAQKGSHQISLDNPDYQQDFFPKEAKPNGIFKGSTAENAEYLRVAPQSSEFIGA

For the molecule `C=CC(=O)Nc1cccc(-c2c[nH]c3ncc(C(=O)NC4CCCC4)cc23)c1` [Compound 11a, 3-(3-acrylamidophenyl)-N-cyclopentyl-1H-pyrrolo[2,3-b]pyridine-5-carboxamide], the remaining activity at 1 µM at TXK (1 µM compound, radiometric HotSpot, read-out: residual activity at 1 µM, TXK) was found to be 72%. For the same molecule, the pIC50 against TXK (setting [1]) was < 6.00.

Turning to `C=CC(=O)Nc1cccc(-c2c[nH]c3ncc(C(N)=O)cc23)c1` [Compound 10a, 3-(3-acrylamidophenyl)-1H-pyrrolo[2,3-b]pyridine-5-carboxamide], the remaining activity at 0.2 µM came out at 95.5% at EGFR, 0.5% on JAK3, 28.3% on MKK7 and 3.2% on TXK (setting [2]). For the same molecule, the negative-log IC50 (pIC50) is < 5.00 at EGFR, > 10.00 against JAK3 and 7.55 against TXK (setting [1]).

As to `C=CC(=O)Nc1cccc(-c2c[nH]c3ncccc23)c1` [Compound 9a, N-(3-(1H-pyrrolo[2,3-b]pyridin-3-yl)phenyl)acrylamide], the remaining activity at 0.2 µM was > 100% on EGFR, 0.8% on JAK3, 37.3% at MKK7 and 1.8% on TXK (setting [2]). Also, the values for the negative logarithm of the IC50 (pIC50) on EGFR and on JAK3 were 5.28 and 9.70, respectively.

Take `C=CC(=O)Nc1cccc(-c2c[nH]c3ncc(NC(=O)c4cccs4)cc23)c1` [Compound 12c, N-(3-(3-acrylamidophenyl)-1H-pyrrolo[2,3-b]pyridin-5-yl)thiophene-2-carboxamide]: the remaining activity at 0.2 µM on EGFR is 14.9%; at JAK3, > 100%; on MKK7, > 100%; on TXK (setting [2]), 0.3%. For the same molecule, the results for the pIC50 against EGFR, against JAK3 and against TXK (setting [1]) were 7.92, < 5.00 and 8.00, respectively.

In the case of `CCC(=O)Nc1cccc(-c2c[nH]c3ncc(NC(=O)C4CCCC4)cc23)c1` [Compound 12b, N-(3-(3-propionamidophenyl)-1H-pyrrolo[2,3-b]pyridin-5-yl)cyclopentanecarboxamide], the figures for the remaining activity at 0.2 µM at EGFR and at TXK (setting [2]) were > 100% and 89%, respectively. Further, at TXK (setting [2]), the “Residual Activity @ 200 nM, TXK” value is given as 88.8%.
